Measurements reported in ChEMBL document CHEMBL3880442, “NHE3-binding compounds and methods for inhibiting phosphate transport” (2014).
Active and inactive are the calls of the source. The calls are words filed in the database; no cut-off is given here.

What was measured:
[1] = system: Rattus norvegicus; test: Effect on phosphate level in urine in Sprague-Dawley rat at 3 mg/kg administered via oral gavage measured after 16 hrs by gravimetric analysis relative to vehicle-treated control; format: functional
[2] = system: Rattus norvegicus; test: Effect on sodium level in urine in Sprague-Dawley rat at 3 mg/kg administered via oral gavage measured after 16 hrs by gravimetric analysis relative to vehicle-treated control; format: functional
[3] = system: Rattus norvegicus; test: Effect on sodium level in urine in Sprague-Dawley rat at 10 mg/kg administered via oral gavage measured after 16 hrs by gravimetric analysis relative to vehicle-treated control; format: functional
[4] = system: Rattus norvegicus; test: Effect on phosphate level in urine in Sprague-Dawley rat at 10 mg/kg administered via oral gavage measured after 16 hrs by gravimetric analysis relative to vehicle-treated control; format: functional
[5] = system: Rattus norvegicus; test: Inhibition of NHE3-mediated intestinal phosphate uptake in rat at 10 mg/kg, po administered with 33-labeled Pi in presence of glucose and calcium; format: functional, organism-based
[6] = system: Rattus norvegicus; test: Inhibition of NHE3-mediated intestinal phosphate uptake in rat at 10 mg/kg, po administered with 33-labeled Pi in presence of calcium; format: functional, organism-based
[7] = system: Rattus norvegicus; test: Effect on sodium level in urine in Sprague-Dawley rat at 1 mg/kg administered via oral gavage measured after 16 hrs by gravimetric analysis relative to vehicle-treated control; format: functional
[8] = system: Rattus norvegicus; test: Reduction in urinary sodium level in rat at 10 mg/kg, po administered with 33-labeled Pi; format: functional, organism-based
[9] = system: Rattus norvegicus; test: Effect on fecal form in rat at 10 mg/kg, po administered with 33-labeled Pi; format: functional, organism-based
[10] = system: Rattus norvegicus; test: Inhibition of NHE3-mediated intestinal phosphate uptake in rat at 10 mg/kg, po administered with 33-labeled Pi; format: functional, organism-based

Structure (SMILES): CN1Cc2c(Cl)cc(Cl)cc2[C@H](c2cccc(S(=O)(=O)NCCOCCOCCNC(=O)CCC(CCC(=O)NCCOCCOCCNS(=O)(=O)c3cccc([C@@H]4CN(C)Cc5c(Cl)cc(Cl)cc54)c3)(CCC(=O)NCCOCCOCCNS(=O)(=O)c3cccc([C@@H]4CN(C)Cc5c(Cl)cc(Cl)cc54)c3)NC(=O)N[C@@H](CC(=O)O)C(=O)O)c2)C1
- Activity [1]: 51%
- Activity [2]: 41%

Structure (SMILES): CN1Cc2c(Cl)cc(Cl)cc2[C@H](c2cccc(S(=O)(=O)NCCOCCOCCN(C)C(=O)NCCCN(CCCNC(=O)N(C)CCOCCOCCNS(=O)(=O)c3cccc([C@@H]4CN(C)Cc5c(Cl)cc(Cl)cc54)c3)CCCNC(=O)N(C)CCOCCOCCNS(=O)(=O)c3cccc([C@@H]4CN(C)Cc5c(Cl)cc(Cl)cc54)c3)c2)C1
- Activity [1]: 68%
- Activity [2]: 38%

Structure (SMILES): CN1Cc2c(Cl)cc(Cl)cc2[C@H](c2cccc(S(=O)(=O)NCCOCCOCCNC(=O)NCCN(CCNC(=O)NCCOCCOCCNS(=O)(=O)c3cccc([C@@H]4CN(C)Cc5c(Cl)cc(Cl)cc54)c3)C(=O)CCOCCOCCOCCOCCOCCC(=O)N(CCNC(=O)NCCOCCOCCNS(=O)(=O)c3cccc([C@@H]4CN(C)Cc5c(Cl)cc(Cl)cc54)c3)CCNC(=O)NCCOCCOCCNS(=O)(=O)c3cccc([C@@H]4CN(C)Cc5c(Cl)cc(Cl)cc54)c3)c2)C1
- Activity [3]: 47%
- Activity [4]: 69%

Structure (SMILES): CN1Cc2c(Cl)cc(Cl)cc2[C@H](c2ccc(S(=O)(=O)NCCOCCOCCOCCNC(=O)COCC(=O)NCCOCCOCCOc3cccc(-c4nc(NC(=N)N)nc5ccc(Cl)cc45)c3)cc2)C1
- Activity [3]: 87%
- Activity [4]: 150%

Structure (SMILES): O=C(NCCCCNC(=O)NCCOCCOCCNS(=O)(=O)c1ccc(O[C@H]2c3ccccc3C[C@@H]2N2CCCCC2)cc1)NCCOCCOCCNS(=O)(=O)c1ccc(O[C@H]2c3ccccc3C[C@@H]2N2CCCCC2)cc1
- Activity [3]: 35 - 73%
- Activity [4]: 30 - 51%

Structure (SMILES): CN1Cc2c(Cl)cc(Cl)cc2[C@H](c2cccc(S(=O)(=O)NCCOCCOCCNC(=O)CCC(CCC(=O)NCCOCCOCCNS(=O)(=O)c3cccc([C@@H]4CN(C)Cc5c(Cl)cc(Cl)cc54)c3)(CCC(=O)NCCOCCOCCNS(=O)(=O)c3cccc([C@@H]4CN(C)Cc5c(Cl)cc(Cl)cc54)c3)NC(=O)N3CCN(CCOCCO)CC3)c2)C1
- Activity [1]: 34%
- Activity [2]: 31%

Structure (SMILES): CN1Cc2c(Cl)cc(Cl)cc2[C@H](c2cccc(S(=O)(=O)NCCOCCOCCNC(=O)Nc3ccc(NC(=O)NCCOCCOCCNS(=O)(=O)c4cccc([C@@H]5CN(C)Cc6c(Cl)cc(Cl)cc65)c4)cc3)c2)C1.Cl.Cl
- inhibition [5]: Active
- inhibition [6]: Active
- Activity [7]: 22%
- Activity [8]: Active
- Activity [9]: Active
- inhibition [10]: Active

Structure (SMILES): CN1Cc2c(Cl)cc(Cl)cc2[C@@H](c2cccc(S(=O)(=O)NCCOCCOCCNC(=O)NCCCCNC(=O)NCCOCCOCCNS(=O)(=O)c3cccc([C@@H]4CN(C)Cc5c(Cl)cc(Cl)cc54)c3)c2)C1.Cl.Cl
- Activity [3]: 90%
